The test system of test [1] is THP-1. Put plainly: Growth inhibition of human THP1 cells at 50 uM after 48 hrs by SRB assay. It is filed as functional. The conditions noted are these: THP-1, 48 h, read-out: GI. On the technique in general: The SRB assay estimates cell density from bound dye.
Test [2] deals with A549. Put plainly: Growth inhibition of human A549 cells at 100 uM after 48 hrs by SRB assay. It is filed as functional. The following applies: A549, 48 h, read-out: GI.
In test [3] the test system is Caco-2. Put plainly: Growth inhibition of human Caco2 cells at 50 uM after 48 hrs by SRB assay. The conditions noted are these: Caco-2, 48 h, read-out: GI. It is filed as functional.
In test [4] the test system is THP-1. In words: Growth inhibition of human THP1 cells at 10 uM after 48 hrs by SRB assay. It is filed as functional. The following applies: THP-1, 48 h, read-out: GI.
For test [5], the system named is Caco-2. Put plainly: Growth inhibition of human Caco2 cells at 100 uM after 48 hrs by SRB assay. It is filed as functional. The conditions noted are these: Caco-2, 48 h, read-out: GI.
In test [6] the test system is PC-3. Put plainly: Growth inhibition of human PC3 cells at 50 uM after 48 hrs by SRB assay. It is filed as functional. The following applies: PC-3, 48 h, read-out: GI.
For test [7], the system named is THP-1. Put plainly: Growth inhibition of human THP1 cells at 100 uM after 48 hrs by SRB assay. It is filed as functional. The conditions noted are these: THP-1, 48 h, read-out: GI.
The test system of test [8] is PC-3. Put plainly: Growth inhibition of human PC3 cells at 100 uM after 48 hrs by SRB assay. The conditions noted are these: PC-3, 48 h, read-out: GI. It is filed as functional.
For test [9], the system named is Caco-2. In words: Growth inhibition of human Caco2 cells at 10 uM after 48 hrs by SRB assay. It is filed as functional. The following applies: Caco-2, 48 h, read-out: GI.
In test [10] the test system is PC-3. Put plainly: Growth inhibition of human PC3 cells at 10 uM after 48 hrs by SRB assay. It is filed as functional. The following applies: PC-3, 48 h, read-out: GI.
Test [11] relates to A549. Put plainly: Growth inhibition of human A549 cells at 10 uM after 48 hrs by SRB assay. It is filed as functional. The conditions noted are these: A549, 48 h, read-out: GI.
Test [12] concerns A549. Put plainly: Growth inhibition of human A549 cells at 50 uM after 48 hrs by SRB assay. It is filed as functional. The conditions noted are these: A549, 48 h, read-out: GI.
In test [13] the test system is PC-3. In words: Growth inhibition of human PC3 cells after 48 hrs by SRB assay. The following applies: for IC50: PC-3, 48 h. It is filed as functional, cell-based.
Test [14] has as its system A549. Put plainly: Growth inhibition of human A549 cells after 48 hrs by SRB assay. It is filed as functional, cell-based. The following applies: for IC50: A549, 48 h.
The test system of test [15] is Caco-2. Put plainly: Growth inhibition of human Caco2 cells after 48 hrs by SRB assay. It is filed as functional, cell-based. The following applies: for IC50: Caco-2, 48 h.
Test [16] relates to THP-1. Put plainly: Growth inhibition of human THP1 cells after 48 hrs by SRB assay. It is filed as functional, cell-based. The conditions noted are these: for IC50: THP-1, 48 h.

Structures are written as SMILES.

The values below come from ChEMBL document CHEMBL2062394, “Azide-alkyne cycloaddition en route to novel 1H-1,2,3-triazole tethered isatin conjugates with in vitro cytotoxic evaluation” (Eur J Med Chem, 2012).

The IC50 is the concentration needed to halve the response being measured. The low end stands for inhibition by little substance, the high end for a need for much substance. Consider `O=C1C(=O)N(CCn2cc(CN3C(=O)C(=O)c4cc(Cl)ccc43)nn2)c2ccc(F)cc21`, for which the inhibition of growth at 50 µM came out at 70% in test [1], 12% in test [3], 4% in test [6] and 73% in test [12]. For the same compound, the inhibition of growth at 100 µM in test [2] stood at 97%; in [5], 30%; in test [7], 92%; in test [8] it was 9%. Moreover, the inhibition of growth at 10 µM in [4] was found to be 20%; in [9] it was 2%; in test [10], 0%; in test [11] it was 64%. The “growth inhibition (GI)” value in [13], in test [14], in test [15] and in test [16] was “Dose-dependent effect” in each case. In addition, the IC50 in [13] is greater than 100 µM; in test [14], 2.65 µM; in test [15] it was greater than 100 µM; in test [16], 36.3 µM.
For `Cc1ccc2c(c1)C(=O)C(=O)N2Cc1cn(CCN2C(=O)C(=O)c3cc(F)ccc32)nn1`, the inhibition of growth at 50 µM in [1] turned out to be 88%; in [3], 15%; in [6] it was 31%; in [12], 57%. Moreover, the inhibition of growth at 100 µM in [2] was determined as 99%; in [5], 44%; in [7] it was 89%; in [8], 48%. Also, the inhibition of growth at 10 µM was 14% in test [4], 0% in test [9], 0% in test [10] and 8% in test [11]. The “growth inhibition (GI)” value in [13], in test [14], in test [15] and in test [16] was “Dose-dependent effect” in each case. The IC50 in [13] was 85.2 µM; in test [14] it was 49.9 µM; in test [15], greater than 100 µM; in test [16], 38.8 µM.
With `O=C1C(=O)N(CCn2cc(CN3C(=O)C(=O)c4ccccc43)nn2)c2ccc(F)cc21`, the inhibition of growth at 50 µM in test [1] stood at 15%; in test [3], 1%; in test [6], 32%; in test [12], 17%. For the same compound, the inhibition of growth at 100 µM was 32% in test [2], 10% in test [5], 90% in [7] and 82% in [8]. The inhibition of growth at 10 µM came to 8% in test [4], 0% in test [9], 0% in [10] and 6% in [11]. Besides, the “growth inhibition (GI)” value in [13], in test [14], in test [15] and in [16] was “Dose-dependent effect” in each case. For the same compound, the IC50 in test [13] was 71.1 µM; in [14], greater than 100 µM; in test [15], greater than 100 µM; in test [16], 88.1 µM.
As for `O=C1C(=O)N(CCn2cc(CN3C(=O)C(=O)c4cc([N+](=O)[O-])ccc43)nn2)c2ccc(Cl)cc21`, the inhibition of growth at 50 µM turned out to be 82% in test [1], 21% in [3], 44% in [6] and 80% in test [12]. The inhibition of growth at 100 µM stood at 99% in test [2], 33% in [5], 88% in test [7] and 72% in [8]. In addition, the inhibition of growth at 10 µM amounted to 29% in [4], 17% in [9], 30% in [10] and 11% in test [11]. Further, the “growth inhibition (GI)” value in [13], in test [14], in [15] and in test [16] was “Dose-dependent effect” in each case. Further, the IC50 was 53.2 µM in test [13], 39.3 µM in [14], greater than 100 µM in test [15] and 26 µM in [16].
For the compound `O=C1C(=O)N(CCn2cc(CN3C(=O)C(=O)c4cc([N+](=O)[O-])ccc43)nn2)c2ccc(F)cc21`, the inhibition of growth at 50 µM is 14% in test [1], 0% in test [3], 11% in test [6] and 22% in test [12]. In addition, the inhibition of growth at 100 µM was found to be 64% in test [2], 0% in test [5], 90% in [7] and 33% in test [8]. In addition, the inhibition of growth at 10 µM came out at 2% in test [4], 0% in test [9], 2% in [10] and 7% in [11]. Also, the “growth inhibition (GI)” value in test [13], in test [14], in test [15] and in [16] was “Dose-dependent effect” in each case. Besides, the IC50 in [13] was 95.2 µM; in [14], 93.2 µM; in [15] it was greater than 100 µM; in [16], 86.2 µM.
Turning to `O=C1C(=O)N(CCn2cc(CN3C(=O)C(=O)c4cc([N+](=O)[O-])ccc43)nn2)c2ccccc21`, the inhibition of growth at 50 µM is 97% in test [1], 4% in test [3], 97% in test [6] and 96% in [12]. In addition, the inhibition of growth at 100 µM in test [2] stood at 98%; in [5], 18%; in test [7], 100%; in [8], 99%. Besides, the inhibition of growth at 10 µM in test [4] came out at 11%; in [9] it was 0%; in test [10] it was 24%; in test [11], 13%. Also, the “growth inhibition (GI)” value in test [13], in [14], in test [15] and in test [16] was “Dose-dependent effect” each time. In addition, the IC50 in [13] was 30.7 µM; in test [14] it was 39.2 µM; in [15], greater than 100 µM; in test [16] it was 42.8 µM.
